Data taken from patent US9260439B2, “Dihydropyrrolopyrimidine derivatives” (PFIZER INC., priority 2014, dated 2016).

Target: truncated PI3Kα (p110α/iSH2 p85α) (Homo sapiens (Human), UniProt P42336)
Experiment: PI3KA_Act fluorescence polarization kinase assay (Ki)
Assay type: biochemical
Conditions: 1 mM ATP
Procedure, shortened: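 Ki values result from fitting fluorescence polarization signals to the Morrison equation for tight-binding competitive inhibitors. The detector was GST-Grp1 PH domain with TAMRA-PIP3, read after a 30 min room-temperature reaction of 0.5 nM truncated PI3Kα and 30 μM PIP2 at pH 7.4 in HEPES/NaCl/MgCl2/DTT/CHAPS buffer. Compounds were tested as 12-point 3-fold dilutions from 3 μM.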

truncated PI3Kα (p110α/iSH2 p85α), sequence (P42336 whole entry, the tested form may be a part): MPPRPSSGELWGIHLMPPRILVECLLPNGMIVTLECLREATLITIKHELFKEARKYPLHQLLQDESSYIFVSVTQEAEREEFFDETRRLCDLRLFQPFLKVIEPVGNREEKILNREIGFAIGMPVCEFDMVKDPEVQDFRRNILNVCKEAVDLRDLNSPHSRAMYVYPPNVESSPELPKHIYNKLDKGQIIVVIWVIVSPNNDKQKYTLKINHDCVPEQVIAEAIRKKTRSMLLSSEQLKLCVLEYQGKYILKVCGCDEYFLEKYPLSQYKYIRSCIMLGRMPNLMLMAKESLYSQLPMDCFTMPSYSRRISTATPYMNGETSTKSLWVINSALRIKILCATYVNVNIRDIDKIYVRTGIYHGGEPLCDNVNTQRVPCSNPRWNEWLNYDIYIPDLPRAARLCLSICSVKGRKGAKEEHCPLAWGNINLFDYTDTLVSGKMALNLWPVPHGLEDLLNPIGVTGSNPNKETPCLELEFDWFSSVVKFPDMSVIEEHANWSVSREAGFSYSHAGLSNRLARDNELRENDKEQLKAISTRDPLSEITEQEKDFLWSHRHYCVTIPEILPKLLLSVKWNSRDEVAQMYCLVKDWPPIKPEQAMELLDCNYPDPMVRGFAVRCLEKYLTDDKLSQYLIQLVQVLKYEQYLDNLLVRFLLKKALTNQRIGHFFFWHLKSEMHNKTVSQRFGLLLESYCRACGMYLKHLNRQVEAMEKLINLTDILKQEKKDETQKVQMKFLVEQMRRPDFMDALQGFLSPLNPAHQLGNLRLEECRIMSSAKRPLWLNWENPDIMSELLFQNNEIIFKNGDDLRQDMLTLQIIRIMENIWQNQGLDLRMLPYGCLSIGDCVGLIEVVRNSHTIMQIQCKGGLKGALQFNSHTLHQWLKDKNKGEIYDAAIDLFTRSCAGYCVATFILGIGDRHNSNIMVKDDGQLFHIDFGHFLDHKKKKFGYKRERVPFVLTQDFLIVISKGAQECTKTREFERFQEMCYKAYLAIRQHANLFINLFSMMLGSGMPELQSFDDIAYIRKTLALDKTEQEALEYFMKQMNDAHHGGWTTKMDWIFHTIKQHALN

Row | Structure (SMILES) | PI3KA_Act Ki
1 | CC(C)[C@@H](O)C(=O)N1CC[C@](C)(N2CCc3c(-c4cnc(N)nc4)nc(N4CCOC[C@@H]4C)nc32)C1 [Example 472, (2R)-1-[(3S)-3-{4-(2-aminopyrimidin-5-yl)-2-[(3S)-3-methylmorpholin-4-yl]-5,6-dihydro-7H-pyrrolo[2,3-d]pyrimidin-7-yl}-3-methylpyrrolidin-1-yl]-2-hydroxy-3-methylbutan-1-one] | 0.044 nM
2 | C[C@H]1COCCN1c1nc(-c2cnc(N)nc2)c2c(n1)N([C@@]1(C)CCN(C(=O)C(C)(C)O)C1)CC2 [Example 473, 1-[(3S)-3-{4-(2-aminopyrimidin-5-yl)-2-[(3S)-3-methylmorpholin-4-yl]-5,6-dihydro-7H-pyrrolo[2,3-d]pyrimidin-7-yl}-3-methylpyrrolidin-1-yl]-2-hydroxy-2-methylpropan-1-one] | 0.076 nM
3 | C[C@H]1COCCN1c1nc(-c2cnc(N)nc2)c2c(n1)N([C@@]1(C)CCN(C(=O)C(C)(C)CO)C1)CC2.Cl [Example 474, 1-[(3S)-3-{4-(2-aminopyrimidin-5-yl)-2-[(3S)-3-methylmorpholin-4-yl]-5,6-dihydro-7H-pyrrolo[2,3-d]pyrimidin-7-yl}-3-methylpyrrolidin-1-yl]-3-hydroxy-2,2-dimethylpropan-1-one hydrochloride] | 0.045 nM
4 | C[C@H](N)C(=O)N1CC[C@](C)(N2CCc3c(-c4cnc(N)nc4)nc(N4CCOC[C@@H]4C)nc32)C1.Cl [Example 475, (2S)-2-amino-1-[(3S)-3-{4-(2-aminopyrimidin-5-yl)-2-[(3S)-3-methylmorpholin-4-yl]-5,6-dihydro-7H-pyrrolo[2,3-d]pyrimidin-7-yl}-3-methylpyrrolidin-1-yl]propan-1-one hydrochloride] | 0.068 nM
5 | C[C@@H](N)C(=O)N1CC[C@](C)(N2CCc3c(-c4cnc(N)nc4)nc(N4CCOC[C@@H]4C)nc32)C1.Cl [Example 476, (2R)-2-amino-1-[(3S)-3-{4-(2-aminopyrimidin-5-yl)-2-[(3S)-3-methylmorpholin-4-yl]-5,6-dihydro-7H-pyrrolo[2,3-d]pyrimidin-7-yl}-3-methylpyrrolidin-1-yl]propan-1-one hydrochloride] | <0.018 nM
6 | CC[C@H](N)C(=O)N1CC[C@](C)(N2CCc3c(-c4cnc(N)nc4)nc(N4CCOC[C@@H]4C)nc32)C1.Cl [Example 477, (2S)-2-amino-1-[(3S)-3-{4-(2-aminopyrimidin-5-yl)-2-[(3S)-3-methylmorpholin-4-yl]-5,6-dihydro-7H-pyrrolo[2,3-d]pyrimidin-7-yl}-3-methylpyrrolidin-1-yl]butan-1-one hydrochloride] | 0.038 nM
7 | CC[C@@H](N)C(=O)N1CC[C@](C)(N2CCc3c(-c4cnc(N)nc4)nc(N4CCOC[C@@H]4C)nc32)C1.Cl [Example 478, (2R)-2-amino-1-[(3S)-3-{4-(2-aminopyrimidin-5-yl)-2-[(3S)-3-methylmorpholin-4-yl]-5,6-dihydro-7H-pyrrolo[2,3-d]pyrimidin-7-yl}-3-methylpyrrolidin-1-yl]butan-1-one hydrochloride] | 0.026 nM
8 | C[C@H]1COCCN1c1nc(-c2cnc(N)nc2)c2c(n1)N([C@@]1(C)CCN(C(=O)[C@@H](N)CF)C1)CC2.Cl [Example 479, (2R)-2-amino-1-[(3S)-3-{4-(2-aminopyrimidin-5-yl)-2-[(3S)-3-methylmorpholin-4-yl]-5,6-dihydro-7H-pyrrolo[2,3-d]pyrimidin-7-yl}-3-methylpyrrolidin-1-yl]-3-fluoropropan-1-one hydrochloride] | 0.026 nM
9 | C[C@H]1COCCN1c1nc(-c2cnc(N)nc2)c2c(n1)N([C@@]1(C)CCN(C(=O)[C@H](N)CF)C1)CC2.Cl [Example 480, (2S)-2-amino-1-[(3S)-3-{4-(2-aminopyrimidin-5-yl)-2-[(3S)-3-methylmorpholin-4-yl]-5,6-dihydro-7H-pyrrolo[2,3-d]pyrimidin-7-yl}-3-methylpyrrolidin-1-yl]-3-fluoropropan-1-one hydrochloride] | <0.018 nM
10 | C[C@H]1COCCN1c1nc(-c2cnc(N)nc2)c2c(n1)N([C@@]1(C)CCN(C(=O)[C@@H](N)C3CC3)C1)CC2.Cl [Example 481, (2S)-2-amino-1-[(3S)-3-{4-(2-aminopyrimidin-5-yl)-2-[(3S)-3-methylmorpholin-4-yl]-5,6-dihydro-7H-pyrrolo[2,3-d]pyrimidin-7-yl}-3-methylpyrrolidin-1-yl]-2-cyclopropylethanone hydrochloride] | 0.149 nM
11 | C[C@H]1COCCN1c1nc(-c2cnc(N)nc2)c2c(n1)N([C@@]1(C)CCN(C(=O)[C@H](N)C3CC3)C1)CC2.Cl [Example 482, (2R)-2-amino-1-[(3S)-3-{4-(2-aminopyrimidin-5-yl)-2-[(3S)-3-methylmorpholin-4-yl]-5,6-dihydro-7H-pyrrolo[2,3-d]pyrimidin-7-yl}-3-methylpyrrolidin-1-yl]-2-cyclopropylethanone hydrochloride] | 0.022 nM
12 | C[C@H]1COCCN1c1nc(-c2cnc(N)nc2)c2c(n1)N([C@@]1(C)CCN(C(=O)CN(C)C)C1)CC2 [Example 483, 1-[(3S)-3-{4-(2-aminopyrimidin-5-yl)-2-[(3S)-3-methylmorpholin-4-yl]-5,6-dihydro-7H-pyrrolo[2,3-d]pyrimidin-7-yl}-3-methylpyrrolidin-1-yl]-2-(dimethylamino)ethanone] | 0.049 nM
13 | C[C@H]1COCCN1c1nc(-c2cnc(N)nc2)c2c(n1)N([C@@]1(C)CCN(C(=O)C(C)(C)CN)C1)CC2.Cl [Example 484, 3-amino-1-[(3S)-3-{4-(2-aminopyrimidin-5-yl)-2-[(3S)-3-methylmorpholin-4-yl]-5,6-dihydro-7H-pyrrolo[2,3-d]pyrimidin-7-yl}-3-methylpyrrolidin-1-yl]-2,2-dimethylpropan-1-one hydrochloride] | <0.018 nM
14 | C[C@H]1COCCN1c1nc(-c2cnc(N)nc2)c2c(n1)N([C@@]1(C)CCN(C(=O)[C@](C)(N)CO)C1)CC2.Cl [Example 485, (2R)-2-amino-1-[(3S)-3-{4-(2-aminopyrimidin-5-yl)-2-[(3S)-3-methylmorpholin-4-yl]-5,6-dihydro-7H-pyrrolo[2,3-d]pyrimidin-7-yl}-3-methylpyrrolidin-1-yl]-3-hydroxy-2-methylpropan-1-one hydrochloride] | <0.018 nM
15 | C[C@H]1COCCN1c1nc(-c2cnc(N)nc2)c2c(n1)N([C@@]1(C)CCN(C(=O)[C@@](C)(N)CO)C1)CC2.Cl [Example 486, (2S)-2-amino-1-[(3S)-3-{4-(2-aminopyrimidin-5-yl)-2-[(3S)-3-methylmorpholin-4-yl]-5,6-dihydro-7H-pyrrolo[2,3-d]pyrimidin-7-yl}-3-methylpyrrolidin-1-yl]-3-hydroxy-2-methylpropan-1-one hydrochloride] | <0.018 nM
16 | C[C@H]1COCCN1c1nc(-c2cnc(N)nc2)c2c(n1)N([C@@]1(C)CCN(C(=O)C(C)(N)CO)C1)CC2.Cl (stereo partly drawn) [Example 487, 2-amino-1-[(3S)-3-{4-(2-aminopyrimidin-5-yl)-2-[(3S)-3-methylmorpholin-4-yl]-5,6-dihydro-7H-pyrrolo[2,3-d]pyrimidin-7-yl}-3-methylpyrrolidin-1-yl]-3-hydroxy-2-methylpropan-1-one hydrochloride] | 0.011 nM
17 | CNC(C)(C)C(=O)N1CC[C@](C)(N2CCc3c(-c4cnc(N)nc4)nc(N4CCOC[C@@H]4C)nc32)C1.Cl [Example 488, 1-[(3S)-3-{4-(2-aminopyrimidin-5-yl)-2-[(3S)-3-methylmorpholin-4-yl]-5,6-dihydro-7H-pyrrolo[2,3-d]pyrimidin-7-yl}-3-methylpyrrolidin-1-yl]-2-methyl-2-(methylamino)propan-1-one hydrochloride] | <0.018 nM
18 | C[C@H]1COCCN1c1nc(-c2cnc(N)nc2)c2c(n1)N([C@@]1(C)CCN(C(=O)C(F)(F)CN)C1)CC2.Cl [Example 489, 3-amino-1-[(3S)-3-{4-(2-aminopyrimidin-5-yl)-2-[(3S)-3-methylmorpholin-4-yl]-5,6-dihydro-7H-pyrrolo[2,3-d]pyrimidin-7-yl}-3-methylpyrrolidin-1-yl]-2,2-difluoropropan-1-one hydrochloride] | <0.018 nM
19 | C[C@H]1COCCN1c1nc(-c2cnc(N)nc2)c2c(n1)N([C@@]1(C)CCN(C(=O)[C@@H](N)C(F)(F)F)C1)CC2.Cl [Example 490, (2R)-2-amino-1-[(3S)-3-{4-(2-aminopyrimidin-5-yl)-2-[(3S)-3-methylmorpholin-4-yl]-5,6-dihydro-7H-pyrrolo[2,3-d]pyrimidin-7-yl}-3-methylpyrrolidin-1-yl]-3,3,3-trifluoropropan-1-one hydrochloride] | <0.018 nM
20 | C[C@H]1COCCN1c1nc(-c2cnc(N)nc2)c2c(n1)N([C@@]1(C)CCN(C(=O)[C@H](N)C(F)(F)F)C1)CC2.Cl [Example 491, (2S)-2-amino-1-[(3S)-3-{4-(2-aminopyrimidin-5-yl)-2-[(3S)-3-methylmorpholin-4-yl]-5,6-dihydro-7H-pyrrolo[2,3-d]pyrimidin-7-yl}-3-methylpyrrolidin-1-yl]-3,3,3-trifluoropropan-1-one hydrochloride] | 0.050 nM
21 | C[C@H]1COCCN1c1nc(-c2cnc(N)nc2)c2c(n1)N([C@@]1(C)CCN(C(=O)C3(N)CC3)C1)CC2.Cl [Example 492, (1-aminocyclopropyl)[(3S)-3-{4-(2-aminopyrimidin-5-yl)-2-[(3S)-3-methylmorpholin-4-yl]-5,6-dihydro-7H-pyrrolo[2,3-d]pyrimidin-7-yl}-3-methylpyrrolidin-1-yl]methanone hydrochloride] | 0.101 nM
22 | C[C@H]1COCCN1c1nc(-c2cnc(N)nc2)c2c(n1)N([C@@]1(C)CCN(C(=O)C3(CN)CC3)C1)CC2.Cl [Example 493, [1-(aminomethyl)cyclopropyl][(3S)-3-{4-(2-aminopyrimidin-5-yl)-2-[(3S)-3-methylmorpholin-4-yl]-5,6-dihydro-7H-pyrrolo[2,3-d]pyrimidin-7-yl}-3-methylpyrrolidin-1-yl]methanone hydrochloride] | 0.061 nM
